In brackets after ≈: the same amount, converted by molar mass. A value given as a limit tells only on which side of the number the result lay.

The test system of one assay is P. aeruginosa CDC-0054. Description: microbe, parasite or virus in culture. The class given is cell-based. As to conditions: Pseudomonas aeruginosa, CDC0054, read-out: Minimum inhibitory concentration, P. aeruginosa CDC-0054.
The target of assay [1] is T1, PBP1a from Acinetobacter baumannii (ATCC 19606) (Acinetobacter baumannii, UniProt A0ABX6CK30).
T1 sequence (A0ABX6CK30 1-851): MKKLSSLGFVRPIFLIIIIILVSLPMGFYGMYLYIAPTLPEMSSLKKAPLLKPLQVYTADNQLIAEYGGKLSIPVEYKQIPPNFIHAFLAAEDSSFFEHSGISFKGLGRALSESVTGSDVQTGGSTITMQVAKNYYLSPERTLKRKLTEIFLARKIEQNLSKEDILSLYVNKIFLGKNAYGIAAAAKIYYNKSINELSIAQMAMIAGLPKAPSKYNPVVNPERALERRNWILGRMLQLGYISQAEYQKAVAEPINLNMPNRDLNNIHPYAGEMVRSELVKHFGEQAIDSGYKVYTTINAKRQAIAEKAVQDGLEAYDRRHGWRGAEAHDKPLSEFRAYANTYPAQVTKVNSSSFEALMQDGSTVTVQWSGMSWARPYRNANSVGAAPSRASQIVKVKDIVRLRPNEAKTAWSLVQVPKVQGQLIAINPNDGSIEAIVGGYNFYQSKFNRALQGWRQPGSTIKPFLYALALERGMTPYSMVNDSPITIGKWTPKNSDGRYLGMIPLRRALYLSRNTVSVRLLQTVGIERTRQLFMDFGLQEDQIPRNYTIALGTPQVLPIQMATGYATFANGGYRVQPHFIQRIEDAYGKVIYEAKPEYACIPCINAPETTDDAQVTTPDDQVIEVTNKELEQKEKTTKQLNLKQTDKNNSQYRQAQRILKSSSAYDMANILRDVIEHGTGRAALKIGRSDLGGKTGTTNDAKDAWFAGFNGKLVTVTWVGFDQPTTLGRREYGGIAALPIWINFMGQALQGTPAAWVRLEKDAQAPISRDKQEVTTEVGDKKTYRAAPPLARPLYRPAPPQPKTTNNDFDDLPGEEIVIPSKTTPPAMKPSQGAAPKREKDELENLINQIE
Description: Bocillin-FL fluorescence polarization competition binding, A. baumannii PBP1a. Conditions: fluorescence polarization competition binding assay using Bocillin-FL; read-out: A. baumannii PBP1a Potency. In outline: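 Purified PBP was preincubated with inhibitor (E. coli PBP3 1.5 μM, 30 min; P. aeruginosa PBP3 0.75 μM, A. baumannii PBP3 0.2 μM and PBP1a 1 μM, 15 min), then Bocillin-FL (0.1 μM; 0.05 μM for PBP1a) added and FP read up to 60 min. EC50 = 50% loss of bound probe.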
For orientation: Polarisation of emitted light reports the rotation of a fluorescent probe.

The test system of assay [2] is N. gonorrhoeae ATCC 49226. Briefly: Liquid broth MIC in Fastidious broth. As to conditions: Neisseria gonorrhoeae, ATCC49226, read-out: Minimum Inhibitory Concentration, ATCC 49226.
Description: Additional antibacterial testing of the series was performed in 8 reference strains of N. gonorrhoeae (ATCC 49226, FA1090, MS 11, WHO G, WHO L, WHO M, WHO K, WHO X, WHO Z, WHO Q, CDC-0197). ATCC 49226, FA1090, MS11, WHO G, WHO L, and WHO M produce wild type or wild-type like PBP2. WHO K, WHO X, WHO Z, WHO Q, and CDC-0197 produce mosaic PBP2. Liquid broth-based assays were used for antibacterial testing of PBP inhibitors in Neisseria gonorrhoeae. Briefly, cryo-preserved bacterial cultures of clinical strains were streaked for isolation on Chocolate Agar (72 g/L (2×) GC Agar Base (BD #228950) and 2% (2×) Hemoglobin was autoclaved at 121° C. for 20 minutes to sterilize. Once cooled to ˜50° C. the 2×GC Agar Base and 2× Hemoglobin solutions are combined and 1% IsoVitaleX Enrichment (BD #211876) was added to the solution). Strains were incubated at 36° C. and 5% CO2 to allow growth of colonies, 24 hours before inoculum preparation. 2-fold serial dilutions of test compounds were conducted in a 96 well plate with a final volume of 75 μL per well at 2-fold the final desired concentration in Fastidious broth (Remel #R07664). For preparation of assay inoculum, a direct suspension was prepared by aseptically swabbing 10-15 colonies from agar plates into culture tubes containing 2 mL of fresh sterile saline. After the dilution plates were set up, direct suspensions were then diluted in a cuvette containing sterile saline and the optical density was measured at 600 nm. Inocula were diluted such that 75 μL of this culture in Fastidious broth results in a starting bacterial concentration of 5×10^5 CFU/mL when added to the dilution plates. The plates were incubated for ˜24 hours at 36° C. and 5% CO2.
Another assay deals with A. baumannii ATCC 17978. Description: microbe, parasite or virus in culture. Conditions: Acinetobacter baumannii, ATCC17978, read-out: MIC, A. baumannii ATCC 17978. Format: cell-based.
The next assay deals with A. baumannii CDC-0045. Briefly: microbe, parasite or virus in culture. Format: cell-based. Conditions: Acinetobacter baumannii, CDC0045, read-out: MIC, A. baumannii CDC-0045.

In the case of `O=C(NCCS(=O)(=O)N1CCN(C(=O)N[C@@H](C(=O)N[C@H]2Cc3ccc(F)c(C(=O)O)c3OB2O)c2cc(F)c(O)c(O)c2Cl)C1=O)Nc1cccnc1` [Example 267, (R)-3-((R)-2-(2-chloro-5-fluoro-3,4-dihydroxyphenyl)-2-(2-oxo-3-((2-(3-(pyridin-3-yl)ureido)ethyl)sulfonyl)imidazolidine-1-carboxamido)acetamido)-7-fluoro-2-hydroxy-3,4-dihydro-2H-benzo[e][1,2]oxaborinine-8-carboxylic acid], the MIC was 2 to 4 µg/mL (≈ 2.56 to 5.12 µM) with P. aeruginosa CDC-0054, 16 to 32 µg/mL (≈ 20.5 to 40.9 µM) in assay [2], less than 1 µg/mL in the assay with A. baumannii ATCC 17978 and less than 1 µg/mL in the assay with A. baumannii CDC-0045. The IC50 in assay [1] was more than 250 µM.

Regarding `O=C(NCCCS(=O)(=O)N1CCN(C(=O)NC(C(=O)N[C@H]2Cc3ccc(F)c(C(=O)O)c3OB2O)c2cc(F)c(O)c(O)c2Cl)C1=O)c1ccccc1` (stereo partly drawn) [Example 268, (3R)-3-(2-(3-((3-benzamidopropyl)sulfonyl)-2-oxoimidazolidine-1-carboxamido)-2-(2-chloro-5-fluoro-3,4-dihydroxyphenyl)acetamido)-7-fluoro-2-hydroxy-3,4-dihydro-2H-benzo[e][1,2]oxaborinine-8-carboxylic acid], the MIC with P. aeruginosa CDC-0054 was 8 to 16 µg/mL (≈ 10.3 to 20.5 µM); in assay [2], 16 to 32 µg/mL (≈ 20.5 to 41 µM); in the assay with A. baumannii ATCC 17978 it was less than 1 µg/mL; with A. baumannii CDC-0045, 2 to 4 µg/mL (≈ 2.56 to 5.13 µM). Further, in assay [1], the IC50 is more than 250 µM.

Take `O=C(NCCCS(=O)(=O)N1CCN(C(=O)NC(C(=O)N[C@H]2Cc3ccc(F)c(C(=O)O)c3OB2O)c2cc(F)c(O)c(O)c2Cl)C1=O)c1ccc(O)cc1` (stereo partly drawn) [Example 269, (3R)-3-(2-(2-chloro-5-fluoro-3,4-dihydroxyphenyl)-2-(3-((3-(4-hydroxybenzamido)propyl)sulfonyl)-2-oxoimidazolidine-1-carboxamido)acetamido)-7-fluoro-2-hydroxy-3,4-dihydro-2H-benzo[e][1,2]oxaborinine-8-carboxylic acid]: the MIC is 2 to 4 µg/mL (≈ 2.51 to 5.03 µM) in the assay on P. aeruginosa CDC-0054, 16 to 32 µg/mL (≈ 20.1 to 40.2 µM) in assay [2], less than 1 µg/mL with A. baumannii ATCC 17978 and less than 1 µg/mL with A. baumannii CDC-0045. Also, in assay [1], the IC50 is more than 250 µM.

Consider `O=C(NCCCS(=O)(=O)N1CCN(C(=O)N[C@H](C(=O)N[C@H]2Cc3ccc(F)c(C(=O)O)c3OB2O)c2cc(F)c(O)c(O)c2Cl)C1=O)c1cccc(O)c1` [Example 270, (R)-3-((S)-2-(2-chloro-5-fluoro-3,4-dihydroxyphenyl)-2-(3-((3-(3-hydroxybenzamido)propyl)sulfonyl)-2-oxoimidazolidine-1-carboxamido)acetamido)-7-fluoro-2-hydroxy-3,4-dihydro-2H-benzo[e][1,2]oxaborinine-8-carboxylic acid], for which the MIC is more than 128 µg/mL in the assay with P. aeruginosa CDC-0054, more than 64 µg/mL in assay [2], less than 1 µg/mL in the assay on A. baumannii ATCC 17978 and 8 to 16 µg/mL (≈ 10.1 to 20.1 µM) in the assay on A. baumannii CDC-0045. Also, the IC50 in assay [1] was more than 250 µM.

Consider `O=C(NCCCS(=O)(=O)N1CCN(C(=O)N[C@@H](C(=O)N[C@H]2Cc3ccc(F)c(C(=O)O)c3OB2O)c2cc(F)c(O)c(O)c2Cl)C1=O)c1cccc(O)c1` [Example 271, (R)-3-((R)-2-(2-chloro-5-fluoro-3,4-dihydroxyphenyl)-2-(3-((3-(3-hydroxybenzamido)propyl)sulfonyl)-2-oxoimidazolidine-1-carboxamido)acetamido)-7-fluoro-2-hydroxy-3,4-dihydro-2H-benzo[e][1,2]oxaborinine-8-carboxylic acid], for which the MIC was 2 to 4 µg/mL (≈ 2.51 to 5.03 µM) in the assay with P. aeruginosa CDC-0054, 16 to 32 µg/mL (≈ 20.1 to 40.2 µM) in assay [2], less than 1 µg/mL in the assay on A. baumannii ATCC 17978 and less than 1 µg/mL in the assay on A. baumannii CDC-0045. Besides, the IC50 in assay [1] is more than 250 µM.

For the molecule `O=C(NCCCS(=O)(=O)N1CCN(C(=O)NC(C(=O)N[C@H]2Cc3ccc(F)c(C(=O)O)c3OB2O)c2cc(F)c(O)c(O)c2Cl)C1=O)c1ccncc1` (stereo partly drawn) [Example 272, (3R)-3-(2-(2-chloro-5-fluoro-3,4-dihydroxyphenyl)-2-(3-((3-(isonicotinamido)propyl)sulfonyl)-2-oxoimidazolidine-1-carboxamido)acetamido)-7-fluoro-2-hydroxy-3,4-dihydro-2H-benzo[e][1,2]oxaborinine-8-carboxylic acid], the MIC was 8 to 16 µg/mL (≈ 10.2 to 20.5 µM) in the assay on P. aeruginosa CDC-0054, 16 to 32 µg/mL (≈ 20.5 to 41 µM) in assay [2], less than 1 µg/mL in the assay with A. baumannii ATCC 17978 and less than 1 µg/mL with A. baumannii CDC-0045. The IC50 in assay [1] was more than 250 µM.

As to `O=C(NCCCS(=O)(=O)N1CCN(C(=O)NC(C(=O)N[C@H]2Cc3ccc(F)c(C(=O)O)c3OB2O)c2cc(F)c(O)c(O)c2Cl)C1=O)c1cccnc1` (stereo partly drawn) [Example 273, (3R)-3-(2-(2-chloro-5-fluoro-3,4-dihydroxyphenyl)-2-(3-((3-(nicotinamido)propyl)sulfonyl)-2-oxoimidazolidine-1-carboxamido)acetamido)-7-fluoro-2-hydroxy-3,4-dihydro-2H-benzo[e][1,2]oxaborinine-8-carboxylic acid], the MIC is 2 to 4 µg/mL (≈ 2.56 to 5.12 µM) with P. aeruginosa CDC-0054, 16 to 32 µg/mL (≈ 20.5 to 41 µM) in assay [2], less than 1 µg/mL with A. baumannii ATCC 17978 and less than 1 µg/mL in the assay with A. baumannii CDC-0045. In addition, in assay [1], the IC50 is more than 250 µM.

Turning to `O=C(NCCCS(=O)(=O)N1CCN(C(=O)NC(C(=O)N[C@H]2Cc3ccc(F)c(C(=O)O)c3OB2O)c2cc(F)c(O)c(O)c2Cl)C1=O)c1nccs1` (stereo partly drawn) [Example 274, (3R)-3-(2-(2-chloro-5-fluoro-3,4-dihydroxyphenyl)-2-(2-oxo-3-((3-(thiazole-2-carboxamido)propyl)sulfonyl)imidazolidine-1-carboxamido)acetamido)-7-fluoro-2-hydroxy-3,4-dihydro-2H-benzo[e][1,2]oxaborinine-8-carboxylic acid], the MIC in the assay on P. aeruginosa CDC-0054 was 2 to 4 µg/mL (≈ 2.54 to 5.08 µM); in assay [2], 16 to 32 µg/mL (≈ 20.3 to 40.7 µM); with A. baumannii ATCC 17978, less than 1 µg/mL; in the assay with A. baumannii CDC-0045 it was less than 1 µg/mL. In addition, the IC50 in assay [1] was more than 250 µM.

Regarding `O=C(O)c1c(F)ccc2c1OB(O)[C@@H](NC(=O)C(NC(=O)N1CCN(S(=O)(=O)CCCNC(=O)[C@@H]3CCCN3)C1=O)c1cc(F)c(O)c(O)c1Cl)C2` (stereo partly drawn) [Example 275, (3R)-3-(2-(2-chloro-5-fluoro-3,4-dihydroxyphenyl)-2-(2-oxo-3-((3-((S)-pyrrolidine-2-carboxamido)propyl)sulfonyl)imidazolidine-1-carboxamido)acetamido)-7-fluoro-2-hydroxy-3,4-dihydro-2H-benzo[e][1,2]oxaborinine-8-carboxylic acid], the MIC with P. aeruginosa CDC-0054 is 8 to 16 µg/mL (≈ 10.4 to 20.7 µM); in assay [2], 16 to 32 µg/mL (≈ 20.7 to 41.4 µM); in the assay on A. baumannii ATCC 17978, less than 1 µg/mL; with A. baumannii CDC-0045, less than 1 µg/mL. In addition, the IC50 in assay [1] is more than 250 µM.

As to `O=C(NCCCS(=O)(=O)N1CCN(C(=O)NC(C(=O)N[C@H]2Cc3ccc(F)c(C(=O)O)c3OB2O)c2cc(F)c(O)c(O)c2Cl)C1=O)Nc1ccc(O)cc1` (stereo partly drawn) [Example 276, (3R)-3-(2-(2-chloro-5-fluoro-3,4-dihydroxyphenyl)-2-(3-((3-(3-(4-hydroxyphenyl)ureido)propyl)sulfonyl)-2-oxoimidazolidine-1-carboxamido)acetamido)-7-fluoro-2-hydroxy-3,4-dihydro-2H-benzo[e][1,2]oxaborinine-8-carboxylic acid], the MIC in the assay with P. aeruginosa CDC-0054 is 8 to 16 µg/mL (≈ 9.87 to 19.7 µM); in assay [2], 16 to 32 µg/mL (≈ 19.7 to 39.5 µM); with A. baumannii ATCC 17978, less than 1 µg/mL; in the assay on A. baumannii CDC-0045 it was 2 to 4 µg/mL (≈ 2.47 to 4.93 µM). Further, the IC50 in assay [1] was more than 250 µM.
